Assay results: US6914045B2, “Glycopeptide antibiotics” (Wyeth Holdings Corporation, priority 2001, dated 2005)
≈ marks a conversion by molar mass, not a printed value.

Key:
Assay in all cases: in vitro antibacterial evaluation, MIC by broth dilution
Format in all cases: cell-based
Staphylococcus sp. = conditions: broth dilution, 18 hours at 35° C.
Method: (§1) Methods for in vitro Antibacterial Evaluation (Table 1)
(§2) The minimum inhibitory concentration (MIC), the lowest concentration of the antibiotic which inhibits growth of the test organism, is determined by the broth dilution method using Muller-Hinton II […] (Baltimore Biological Laboratories) following the recommendations of the National Committee for Clinical Laboratory Standards [Methods for dilution antimicrobial susceptibility tests for bacteria that grow aerobically, approved standard M7-A2, National Committee for Clinical Laboratory Standards, Villanova, Pa.].
(§3) An inoculum level of 5×10^5 CFU/mL, and a range of antibiotic concentrations (64-0.06 μg/mL) is used. […] The test organisms include a spectrum of Gram-positive bacteria comprised of Staphylococcus sp., Streptococcus sp. and Enterococcus sp. These organisms include recent clinical isolates that are resistant to methicillin, penicillin and/or vancomycin.

Streptococcus sp. = conditions: broth dilution, 18 hours at 35° C.
Method: as §1, §2, §3

Enterococcus sp. = conditions: broth dilution, 18 hours at 35° C.
Method: as §1, §2, §3

Escherichia coli = conditions: 18 hours at 35° C.

MIC Staphylococcus aureus (ATCC 29213) (Staphylococcus sp.; strain ATCC 29213): 4 µg/mL (≈ 2.79 µM) | MIC Staphylococcus aureus (GC 1131) (Staphylococcus sp.; strain GC 1131): 8 µg/mL (≈ 5.59 µM) | MIC Staphylococcus aureus (GC 3051) (Staphylococcus sp.; strain GC 3051): 4 µg/mL (≈ 2.79 µM) | MIC Staphylococcus aureus (GC 3053) (Staphylococcus sp.; strain GC 3053): 4 µg/mL (≈ 2.79 µM) | MIC Staphylococcus aureus (GC 4541) (Staphylococcus sp.; strain GC 4541): 8 µg/mL (≈ 5.59 µM) | MIC Staphylococcus aureus (GC 4542) (Staphylococcus sp.; strain GC 4542): 4 µg/mL (≈ 2.79 µM) | MIC Staphylococcus aureus-SMITH (GC 4543) (Staphylococcus sp.; strain GC 4543): 4 µg/mL (≈ 2.79 µM) | MIC Staphylococcus aureus (GC 4544) (Staphylococcus sp.; strain GC 4544): 8 µg/mL (≈ 5.59 µM) | MIC Staphylococcus aureus (GC 4545) (Staphylococcus sp.; strain GC 4545): 4 µg/mL (≈ 2.79 µM) | MIC Coagulase Negative Staphylococcus (GC 4547) (Staphylococcus sp.; strain GC 4547): 4 µg/mL (≈ 2.79 µM) | MIC Coagulase Negative Staphylococcus (GC 4548) (Staphylococcus sp.; strain GC 4548): 4 µg/mL (≈ 2.79 µM) | MIC Coagulase Negative Staphylococcus (GC 4549) (Staphylococcus sp.; strain GC 4549): 4 µg/mL (≈ 2.79 µM) | MIC Coagulase Negative Staphylococcus (GC 4551) (Staphylococcus sp.; strain GC 4551): 4 µg/mL (≈ 2.79 µM) | MIC Coagulase Negative Staphylococcus (GC 6257) (Staphylococcus sp.; strain GC 6257): 4 µg/mL (≈ 2.79 µM) | MIC Streptococcus agalactiae (GC 4564) (Streptococcus sp.): 0.12 µg/mL (≈ 0.0838 µM) | MIC Streptococcus pneumoniae (ATCC 6301) (Streptococcus sp.): <0.06 µg/mL | MIC Streptococcus pneumoniae (GC 1894) (Streptococcus sp.): <0.06 µg/mL | MIC Streptococcus pneumoniae (GC 4565) (Streptococcus sp.): <0.06 µg/mL | MIC Streptococcus pyogenes (GC 4563) (Streptococcus sp.): 0.12 µg/mL (≈ 0.0838 µM) | MIC Streptococcus pneumoniae (ATCC 6301) (Streptococcus sp.; inoculum 5×10^5 CFU/mL, strain ATCC 6301): <0.06 µg/mL | MIC Streptococcus pneumoniae (GC 1894) (Streptococcus sp.; inoculum 5×10^5 CFU/mL, strain GC 1894): <0.06 µg/mL | MIC Streptococcus pyogenes (GC 4563) (Streptococcus sp.; inoculum 5×10^5 CFU/mL, strain GC 4563): 0.12 µg/mL (≈ 0.0838 µM) | MIC Streptococcus agalactiae (GC 4564) (Streptococcus sp.; inoculum 5×10^5 CFU/mL, strain GC 4564): 0.12 µg/mL (≈ 0.0838 µM) | MIC Streptococcus pneumoniae (GC 4565) (Streptococcus sp.; inoculum 5×10^5 CFU/mL, strain GC 4565): <0.06 µg/mL | MIC Enterococcus avium (GC 4558) (Enterococcus sp.): 4 µg/mL (≈ 2.79 µM) | MIC Enterococcus faecalis (ATCC 29212) (Enterococcus sp.): 8 µg/mL (≈ 5.59 µM) | MIC Enterococcus faecalis (GC 2242) (Enterococcus sp.): 8 µg/mL (≈ 5.59 µM) | MIC Enterococcus faecalis (GC 2691) (Enterococcus sp.): 8 µg/mL (≈ 5.59 µM) | MIC Enterococcus faecalis (GC 3059) (Enterococcus sp.): 8 µg/mL (≈ 5.59 µM) | MIC Enterococcus faecalis (GC 4552) (Enterococcus sp.): 8 µg/mL (≈ 5.59 µM) | MIC Enterococcus faecalis (GC 4553) (Enterococcus sp.): 8 µg/mL (≈ 5.59 µM) | MIC Enterococcus faecalis (GC 4554) (Enterococcus sp.): 8 µg/mL (≈ 5.59 µM) | MIC Enterococcus faecalis (GC 6189) (Enterococcus sp.): 8 µg/mL (≈ 5.59 µM) | MIC Enterococcus faecium (GC 2243) (Enterococcus sp.): 8 µg/mL (≈ 5.59 µM) | MIC Enterococcus faecium (GC 4556) (Enterococcus sp.): 8 µg/mL (≈ 5.59 µM) | MIC Enterococcus faecium (GC 4557) (Enterococcus sp.): 8 µg/mL (≈ 5.59 µM) | MIC Enterococcus faecalis (ATCC 29212) (Enterococcus sp.; inoculum 5×10^5 CFU/mL, strain ATCC 29212): 8 µg/mL (≈ 5.59 µM) | MIC Enterococcus faecalis (GC 2242) (Enterococcus sp.; inoculum 5×10^5 CFU/mL, strain GC 2242): 8 µg/mL (≈ 5.59 µM) | MIC Enterococcus faecium (GC 2243) (Enterococcus sp.; inoculum 5×10^5 CFU/mL, strain GC 2243): 8 µg/mL (≈ 5.59 µM) | MIC Enterococcus faecalis (GC 2691) (Enterococcus sp.; inoculum 5×10^5 CFU/mL, strain GC 2691): 8 µg/mL (≈ 5.59 µM) | MIC Enterococcus faecalis (GC 3059) (Enterococcus sp.; inoculum 5×10^5 CFU/mL, strain GC 3059): 8 µg/mL (≈ 5.59 µM) | MIC Enterococcus faecalis (GC 4552) (Enterococcus sp.; inoculum 5×10^5 CFU/mL, strain GC 4552): 8 µg/mL (≈ 5.59 µM) | MIC Enterococcus faecalis (GC 4553) (Enterococcus sp.; inoculum 5×10^5 CFU/mL, strain GC 4553): 8 µg/mL (≈ 5.59 µM) | MIC Enterococcus faecalis (GC 4554) (Enterococcus sp.; inoculum 5×10^5 CFU/mL, strain GC 4554): 8 µg/mL (≈ 5.59 µM) | MIC Enterococcus faecium (GC 4556) (Enterococcus sp.; inoculum 5×10^5 CFU/mL, strain GC 4556): 8 µg/mL (≈ 5.59 µM) | MIC Enterococcus faecium (GC 4557) (Enterococcus sp.; inoculum 5×10^5 CFU/mL, strain GC 4557): 8 µg/mL (≈ 5.59 µM) | MIC Enterococcus avium (GC 4558) (Enterococcus sp.; inoculum 5×10^5 CFU/mL, strain GC 4558): 4 µg/mL (≈ 2.79 µM) | MIC Enterococcus faecalis (GC 6189) (Enterococcus sp.; inoculum 5×10^5 CFU/mL, strain GC 6189): 8 µg/mL (≈ 5.59 µM) | MIC Escherichia coli (ATCC 25922) (Escherichia coli): 64 µg/mL (≈ 44.7 µM) | MIC Escherichia coli (GC 4559) (Escherichia coli): >64 µg/mL | MIC Escherichia coli (GC 4560) (Escherichia coli): 8 µg/mL (≈ 5.59 µM)
SMILES: CC(c1ccccc1)C1NC(=O)CNC(=O)C(CO)NC(=O)C(C(O)C2CNC(=N)N2C2OC(CO)C(O)C(O)C2O)NC(=O)C(C(O)C2CNC(=N)N2)NC(=O)C(Cc2ccc(OC3OC(CO)C(OC4OC5COC6(CCC(C(C)(C)C)CC6)OC5C(O)C4O)C(O)C3O)cc2)NC1=O (stereo not shown) [Example 208]
MIC Staphylococcus haemolyticus (GC 4546) (Staphylococcus sp.; strain GC 4546): 4 µg/mL (≈ 2.79 µM)
